Measurements as given in patent US11013817B2, “Nanoparticles for drug delivery to treat bone disease” (The Cleveland Clinic Foundation, priority 2016, dated 2021).

Experiment: Solid state solubility of PTX and TXT in polymers (phase separation in cast films)
Type: physicochemical
Parameters: key: +ve: Phase separation; −ve: No phase separation
Excerpt: For this example, polymer and drug solutions in chloroform at different % of drug to polymer were casted into films on glass slides. Following solvent evaporation of chloroform in a chemical hood overnight, the casted films were observed under a light microscope. Phase separation was clearly evident from crystallization of the drug in the polymer film whereas the films were homogeneous when there was no phase separation.

- Phase Separation (drug 1% w/w, polymer inherent viscosity 0.16 dL/g, Lactide/Glycolide 50/50): +
- Phase Separation (drug 1% w/w, polymer inherent viscosity 0.18 dL/g, Lactide/Glycolide 75/25): +
- Phase Separation (drug 1% w/w, polymer inherent viscosity 0.26-0.54 dL/g, Lactide/Glycolide 50/50, Ester Terminated): −
- Phase Separation (drug 1% w/w, polymer inherent viscosity 0.39 dL/g, Lactide/Glycolide 50/50): +
- Phase Separation (drug 1% w/w, polymer inherent viscosity 0.55-0.75 dL/g, Lactide/Glycolide 50/50, Carbohydrate end Group): −
- Phase Separation (drug 1% w/w, polymer inherent viscosity 0.63 dL/g, Lactide/Glycolide 85/15): +
- Phase Separation (drug 1% w/w, polymer inherent viscosity 0.64 dL/g, Lactide/Glycolide 65/35): +
- Phase Separation (drug 1% w/w, polymer inherent viscosity 0.64 dL/g, Lactide/Glycolide 75/25): +
- Phase Separation (drug 1% w/w, polymer inherent viscosity 0.67 dL/g, Lactide/Glycolide 65/35): +
- Phase Separation (drug 1% w/w, polymer inherent viscosity 0.69 dL/g, Lactide/Glycolide 50/50 (first of two such lines, r12)): +
- Phase Separation (drug 1% w/w, polymer inherent viscosity 0.69 dL/g, Lactide/Glycolide 50/50 (second of two such lines, r13)): +
- Phase Separation (drug 1% w/w, polymer inherent viscosity 0.76-0.94 dL/g, Lactide/Glycolide 50/50): +
- Phase Separation (drug 1% w/w, polymer inherent viscosity 0.87 dL/g, Lactide/Glycolide 50/50): +
- Phase Separation (drug 1% w/w, polymer inherent viscosity 0.95-1.20 dL/g, Lactide/Glycolide 50/50): −
- Phase Separation (drug 1% w/w, polymer inherent viscosity 1.15 dL/g, Lactide/Glycolide 50/50): +
- Phase Separation (drug 1% w/w, polymer inherent viscosity 1.24 dL/g, Lactide/Glycolide 50/50): +
- Phase Separation (drug 5% w/w, polymer inherent viscosity 0.16 dL/g, Lactide/Glycolide 50/50): +
- Phase Separation (drug 5% w/w, polymer inherent viscosity 0.18 dL/g, Lactide/Glycolide 75/25): +
- Phase Separation (drug 5% w/w, polymer inherent viscosity 0.26-0.54 dL/g, Lactide/Glycolide 50/50, Ester Terminated): −
- Phase Separation (drug 5% w/w, polymer inherent viscosity 0.39 dL/g, Lactide/Glycolide 50/50): +
- Phase Separation (drug 5% w/w, polymer inherent viscosity 0.55-0.75 dL/g, Lactide/Glycolide 50/50, Carbohydrate end Group): −
- Phase Separation (drug 5% w/w, polymer inherent viscosity 0.63 dL/g, Lactide/Glycolide 85/15): +
- Phase Separation (drug 5% w/w, polymer inherent viscosity 0.64 dL/g, Lactide/Glycolide 65/35): +
- Phase Separation (drug 5% w/w, polymer inherent viscosity 0.64 dL/g, Lactide/Glycolide 75/25): +
- Phase Separation (drug 5% w/w, polymer inherent viscosity 0.67 dL/g, Lactide/Glycolide 65/35): +
- Phase Separation (drug 5% w/w, polymer inherent viscosity 0.69 dL/g, Lactide/Glycolide 50/50 (first of two such lines, r12)): +
- Phase Separation (drug 5% w/w, polymer inherent viscosity 0.69 dL/g, Lactide/Glycolide 50/50 (second of two such lines, r13)): +
- Phase Separation (drug 5% w/w, polymer inherent viscosity 0.76-0.94 dL/g, Lactide/Glycolide 50/50): +
- Phase Separation (drug 5% w/w, polymer inherent viscosity 0.87 dL/g, Lactide/Glycolide 50/50): +
- Phase Separation (drug 5% w/w, polymer inherent viscosity 0.95-1.20 dL/g, Lactide/Glycolide 50/50): −
- Phase Separation (drug 5% w/w, polymer inherent viscosity 1.15 dL/g, Lactide/Glycolide 50/50): +
- Phase Separation (drug 5% w/w, polymer inherent viscosity 1.24 dL/g, Lactide/Glycolide 50/50): +
- Phase Separation (drug 10% w/w, polymer inherent viscosity 0.16 dL/g, Lactide/Glycolide 50/50): +
- Phase Separation (drug 10% w/w, polymer inherent viscosity 0.18 dL/g, Lactide/Glycolide 75/25): +
- Phase Separation (drug 10% w/w, polymer inherent viscosity 0.26-0.54 dL/g, Lactide/Glycolide 50/50, Ester Terminated): −
- Phase Separation (drug 10% w/w, polymer inherent viscosity 0.39 dL/g, Lactide/Glycolide 50/50): +
- Phase Separation (drug 10% w/w, polymer inherent viscosity 0.55-0.75 dL/g, Lactide/Glycolide 50/50, Carbohydrate end Group): −
- Phase Separation (drug 10% w/w, polymer inherent viscosity 0.63 dL/g, Lactide/Glycolide 85/15): +
- Phase Separation (drug 10% w/w, polymer inherent viscosity 0.64 dL/g, Lactide/Glycolide 65/35): +
- Phase Separation (drug 10% w/w, polymer inherent viscosity 0.64 dL/g, Lactide/Glycolide 75/25): +
- Phase Separation (drug 10% w/w, polymer inherent viscosity 0.67 dL/g, Lactide/Glycolide 65/35): +
- Phase Separation (drug 10% w/w, polymer inherent viscosity 0.69 dL/g, Lactide/Glycolide 50/50 (first of two such lines, r12)): +
- Phase Separation (drug 10% w/w, polymer inherent viscosity 0.69 dL/g, Lactide/Glycolide 50/50 (second of two such lines, r13)): +
- Phase Separation (drug 10% w/w, polymer inherent viscosity 0.76-0.94 dL/g, Lactide/Glycolide 50/50): +
- Phase Separation (drug 10% w/w, polymer inherent viscosity 0.87 dL/g, Lactide/Glycolide 50/50): +
- Phase Separation (drug 10% w/w, polymer inherent viscosity 0.95-1.20 dL/g, Lactide/Glycolide 50/50): −
- Phase Separation (drug 10% w/w, polymer inherent viscosity 1.15 dL/g, Lactide/Glycolide 50/50): +
- Phase Separation (drug 10% w/w, polymer inherent viscosity 1.24 dL/g, Lactide/Glycolide 50/50): +
- Phase Separation (drug 15% w/w, polymer inherent viscosity 0.16 dL/g, Lactide/Glycolide 50/50): +
- Phase Separation (drug 15% w/w, polymer inherent viscosity 0.18 dL/g, Lactide/Glycolide 75/25): +
- Phase Separation (drug 15% w/w, polymer inherent viscosity 0.26-0.54 dL/g, Lactide/Glycolide 50/50, Ester Terminated): −
- Phase Separation (drug 15% w/w, polymer inherent viscosity 0.39 dL/g, Lactide/Glycolide 50/50): +
- Phase Separation (drug 15% w/w, polymer inherent viscosity 0.55-0.75 dL/g, Lactide/Glycolide 50/50, Carbohydrate end Group): −
- Phase Separation (drug 15% w/w, polymer inherent viscosity 0.63 dL/g, Lactide/Glycolide 85/15): +
- Phase Separation (drug 15% w/w, polymer inherent viscosity 0.64 dL/g, Lactide/Glycolide 65/35): +
- Phase Separation (drug 15% w/w, polymer inherent viscosity 0.64 dL/g, Lactide/Glycolide 75/25): +
- Phase Separation (drug 15% w/w, polymer inherent viscosity 0.67 dL/g, Lactide/Glycolide 65/35): +
- Phase Separation (drug 15% w/w, polymer inherent viscosity 0.69 dL/g, Lactide/Glycolide 50/50 (first of two such lines, r12)): +
- Phase Separation (drug 15% w/w, polymer inherent viscosity 0.69 dL/g, Lactide/Glycolide 50/50 (second of two such lines, r13)): +
- Phase Separation (drug 15% w/w, polymer inherent viscosity 0.76-0.94 dL/g, Lactide/Glycolide 50/50): +
- Phase Separation (drug 15% w/w, polymer inherent viscosity 0.87 dL/g, Lactide/Glycolide 50/50): +
- Phase Separation (drug 15% w/w, polymer inherent viscosity 0.95-1.20 dL/g, Lactide/Glycolide 50/50): −
- Phase Separation (drug 15% w/w, polymer inherent viscosity 1.15 dL/g, Lactide/Glycolide 50/50): +
- Phase Separation (drug 15% w/w, polymer inherent viscosity 1.24 dL/g, Lactide/Glycolide 50/50): +
- Phase Separation (drug 20% w/w, polymer inherent viscosity 0.16 dL/g, Lactide/Glycolide 50/50): +
- Phase Separation (drug 20% w/w, polymer inherent viscosity 0.18 dL/g, Lactide/Glycolide 75/25): +
- Phase Separation (drug 20% w/w, polymer inherent viscosity 0.26-0.54 dL/g, Lactide/Glycolide 50/50, Ester Terminated): −
- Phase Separation (drug 20% w/w, polymer inherent viscosity 0.39 dL/g, Lactide/Glycolide 50/50): +
- Phase Separation (drug 20% w/w, polymer inherent viscosity 0.55-0.75 dL/g, Lactide/Glycolide 50/50, Carbohydrate end Group): −
- Phase Separation (drug 20% w/w, polymer inherent viscosity 0.63 dL/g, Lactide/Glycolide 85/15): +
- Phase Separation (drug 20% w/w, polymer inherent viscosity 0.64 dL/g, Lactide/Glycolide 65/35): +
- Phase Separation (drug 20% w/w, polymer inherent viscosity 0.64 dL/g, Lactide/Glycolide 75/25): +
- Phase Separation (drug 20% w/w, polymer inherent viscosity 0.67 dL/g, Lactide/Glycolide 65/35): +
- Phase Separation (drug 20% w/w, polymer inherent viscosity 0.69 dL/g, Lactide/Glycolide 50/50 (first of two such lines, r12)): +
- Phase Separation (drug 20% w/w, polymer inherent viscosity 0.69 dL/g, Lactide/Glycolide 50/50 (second of two such lines, r13)): +
- Phase Separation (drug 20% w/w, polymer inherent viscosity 0.76-0.94 dL/g, Lactide/Glycolide 50/50): +
- Phase Separation (drug 20% w/w, polymer inherent viscosity 0.87 dL/g, Lactide/Glycolide 50/50): +
- Phase Separation (drug 20% w/w, polymer inherent viscosity 0.95-1.20 dL/g, Lactide/Glycolide 50/50): +
- Phase Separation (drug 20% w/w, polymer inherent viscosity 1.15 dL/g, Lactide/Glycolide 50/50): +
- Phase Separation (drug 20% w/w, polymer inherent viscosity 1.24 dL/g, Lactide/Glycolide 50/50): +
SMILES: CC(=O)O[C@H]1C(=O)[C@@]2(C)[C@H]([C@H](OC(=O)c3ccccc3)[C@]3(O)C[C@H](OC(=O)[C@H](O)[C@@H](NC(=O)c4ccccc4)c4ccccc4)C(C)=C1C3(C)C)[C@]1(OC(C)=O)CO[C@@H]1C[C@@H]2O [Paclitaxel, 5ß,20-Epoxy-1,2a,4,7ß,10ß,13a-hexahydroxytax-11-en-9-one 4,10-diacetate 2-benzoate 13-ester with (2R,3S)-N-benzoyl-3-phenylisoserine]
